According to US10822348B2, “Inhibitors of Bruton's tyrosine kinase and methods of their use” (JANSSEN PHARMACEUTICA NV, priority 2015, dated 2020):

Target: unphosphorylated-BTK kinase domain (UP-BTK), GST-tagged human BTK (389-659aa) (Homo sapiens (Human), UniProt Q06187)
Experiment: BTK kinase Lanthascreen binding assay
Conditions: for BTK_I_binding pIC50: 60 minutes incubation
Procedure: BTK Kinase Lanthascreen Binding Assay:
A BTK kinase lanthascreen binding assay monitors compound binding to unphosphorylated-BTK kinase domain (UP-BTK), by competing with a fluorescent labeled tracer. […] Data were analyzed using Xlfit™ version 5.3 from ID Business Solutions (Guildford), Microsoft Excel add-in. pIC50 refers to the negative log of the IC50 in molar.

[1] = unphosphorylated-BTK kinase domain, pIC50 = negative log of the IC50 in molar
[2] = negative log of the IC50 in molar, 50 nM Tracer 236

unphosphorylated-BTK kinase domain (UP-BTK), GST-tagged human BTK (389-659aa), sequence (Q06187 389-659): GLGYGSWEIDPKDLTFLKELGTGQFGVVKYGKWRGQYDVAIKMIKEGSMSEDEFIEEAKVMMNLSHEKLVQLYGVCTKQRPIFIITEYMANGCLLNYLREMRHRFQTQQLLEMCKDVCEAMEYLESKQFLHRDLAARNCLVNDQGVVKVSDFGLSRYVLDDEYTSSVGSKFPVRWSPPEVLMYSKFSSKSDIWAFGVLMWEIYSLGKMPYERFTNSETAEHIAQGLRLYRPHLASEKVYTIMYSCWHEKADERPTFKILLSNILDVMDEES

BTK_I_binding pIC50 [1]	BTK_I_binding pIC50 [2]	Structure (SMILES)	other results
8.2	–	C=CC(=O)N1C[C@H](NC(=O)c2sc3nccc4c3c2NC(=O)N4c2ccc(Oc3ccccc3)cc2C)C[C@@H](OC)C1 (relative stereo) [Example 481, N-((3R,5R)-1-Acryloyl-5-methoxypiperidin-3-yl)-5-(*S)-(2-methyl-4-phenoxyphenyl)-4-oxo-4,5-dihydro-3H-1-thia-3,5,8-triazaacenaphthylene-2-carboxamide]	–
8.0	–	C=CC(=O)N1C[C@H](NC(=O)c2sc3nccc4c3c2NC(=O)N4c2ccc(Oc3ccccc3)cc2C)C[C@H](OC)C1 (relative stereo) [Example 482, N-((3R,5S)-1-Acryloyl-5-methoxypiperidin-3-yl)-5-(*S)-(2-methyl-4-phenoxyphenyl)-4-oxo-4,5-dihydro-3H-1-thia-3,5,8-triazaacenaphthylene-2-carboxamide]	–
8.0	–	C=CC(=O)N1C[C@@H](F)C[C@@H](NC(=O)c2sc3nccc4c3c2NC(=O)N4c2ccc(Oc3ccccc3)cc2C)C1 (relative stereo) [Example 484, N-((3R,5S)-1-Acryloyl-5-fluoropiperidin-3-yl)-5-(*S)-(2-methyl-4-phenoxyphenyl)-4-oxo-4,5-dihydro-3H-1-thia-3,5,8-triazaacenaphthylene-2-carboxamide]	–
7.7	–	C=CC(=O)N1C[C@H](NC(=O)c2sc3nccc4c3c2NC(=O)N4c2ccc(Oc3ccccc3)cc2C)[C@@H](OC)C1 (relative stereo) [Example 490, N-((3S,4S)-1-Acryloyl-4-methoxypyrrolidin-3-yl)-5-(*S)-(2-methyl-4-phenoxyphenyl)-4-oxo-4,5-dihydro-3H-1-thia-3,5,8-triazaacenaphthylene-2-carboxamide]	–
7.7	–	C=CC(=O)N1C[C@H](NC(=O)c2sc3nccc4c3c2NC(=O)N4c2ccc(Oc3ccccc3)cc2C)[C@H](OC)C1 (relative stereo) [Example 508, N-((3S,4R)-1-Acryloyl-4-methoxypyrrolidin-3-yl)-5-(*S)-(2-methyl-4-phenoxyphenyl)-4-oxo-4,5-dihydro-3H-1-thia-3,5,8-triazaacenaphthylene-2-carboxamide]	–
–	–	C=CC(=O)N1C[C@@H](O)C[C@@H](NC(=O)c2sc3nccc4c3c2NC(=O)N4c2ccc(Oc3ccccc3)cc2C)C1 (single isomer, unassigned) [Example 2, N-((3R,5S)-1-Acryloyl-5-hydroxypiperidin-3-yl)-5-(*S)-(2-methyl-4-phenoxyphenyl)-4-oxo-4,5-dihydro-3H-1-thia-3,5,8-triazaacenaphthylene-2-carboxamide]	IC50 (read-out: BTK_I_binding pIC50 (converted)): 6.31 nM
–	8.1	C=CC(=O)N1CCC[C@@H](NC(=O)c2sc3nccc4c3c2NC(=O)N4c2ccc(Oc3ccccc3)cc2C)C1 (single isomer, unassigned) [Example 9, (R)—N-(1-Acryloylpiperidin-3-yl)-5-(*S)-(2-methyl-4-phenoxyphenyl)-4-oxo-4,5-dihydro-3H-1-thia-3,5,8-triazaacenaphthylene-2-carboxamide]	–
–	7.5	CNC/C=C/C(=O)N1CCC[C@@H](NC(=O)c2sc3nccc4c3c2NC(=O)N4c2ccc(Oc3ccccc3)cc2C)C1 (single isomer, unassigned) [Example 23, (R,E)-5-(*S)-(2-Methyl-4-phenoxyphenyl)-N-(1-(4-(methylamino)but-2-enoyl)piperidin-3-yl)-4-oxo-4,5-dihydro-3H-1-thia-3,5,8-triazaacenaphthylene-2-carboxamide]	–
–	7.3	CNC/C=C/C(=O)N1CCC[C@@H](NC(=O)c2sc3nccc4c3c2NC(=O)N4c2ccc(Oc3ccccc3)cc2C)C1 (single isomer, unassigned) [Example 38, (R,E)-5-(*S)-(2-Methyl-4-phenoxyphenyl)-N-(1-(4-(methylamino)but-2-enoyl)piperidin-3-yl)-4-oxo-4,5-dihydro-3H-1-thia-3,5,8-triazaacenaphthylene-2-carboxamide]	–
–	7.4	C=CC(=O)N1CCC[C@H](NC(=O)c2sc3nccc4c3c2NC(=O)N4c2ccc(Oc3ccccc3)cc2C)C1 (single isomer, unassigned) [Example 44, (S)—N-(1-Acryloylpiperidin-3-yl)-5-(*S)-(2-methyl-4-phenoxyphenyl)-4-oxo-4,5-dihydro-3H-1-thia-3,5,8-triazaacenaphthylene-2-carboxamide]	–
–	7.4	Cc1cc(Oc2ccccc2)ccc1N1C(=O)Nc2c(C(=O)N[C@@H]3CCCN(C(=O)CN(C)C)C3)sc3nccc1c23 (single isomer, unassigned) [Example 56, (R)—N-(1-(2-(Dimethylamino)acetyl)piperidin-3-yl)-5-(*S)-(2-methyl-4-phenoxyphenyl)-4-oxo-4,5-dihydro-3H-1-thia-3,5,8-triazaacenaphthylene-2-carboxamide]	–
–	7.2	C=CC(=O)N1CCC[C@H](NC(=O)c2sc3nccc4c3c2NC(=O)N4c2ccc(Oc3ccccc3)cc2C)C1 (single isomer, unassigned) [Example 82, (S)—N-(1-acryloylpiperidin-3-yl)-5-(*S)-(2-methyl-4-phenoxyphenyl)-4-oxo-4,5-dihydro-3H-1-thia-3,5,8-triazaacenaphthylene-2-carboxamide]	–
–	6.9	C=CC(=O)N1CCC[C@@H](NC(=O)c2sc3nccc4c3c2NC(=O)N4c2ccc(Oc3ccccc3)cc2C)C1 (single isomer, unassigned) [Example 87, (R)—N-(1-Acryloylpiperidin-3-yl)-5-(*R)-(2-methyl-4-phenoxyphenyl)-4-oxo-4,5-dihydro-3H-1-thia-3,5,8-triazaacenaphthylene-2-carboxamide]	–
–	7.6	Cc1cc(Oc2ccccc2)ccc1N1C(=O)Nc2c(C(=O)N[C@H]3CCCOC3)sc3nccc1c23 (single isomer, unassigned) [Example 88, (S)-5-(*S)-(2-Methyl-4-phenoxyphenyl)-4-oxo-N-(tetrahydro-2H-pyran-3-yl)-4,5-dihydro-3H-1-thia-3,5,8-triazaacenaphthylene-2-carboxamide]	–
–	7.8	Cc1cc(Oc2ccccc2)ccc1N1C(=O)Nc2c(C(=O)N[C@@H]3CCCOC3)sc3nccc1c23 (single isomer, unassigned) [Example 96, (R)-5-(*S)-(2-Methyl-4-phenoxyphenyl)-4-oxo-N-(tetrahydro-2H-pyran-3-yl)-4,5-dihydro-3H-1-thia-3,5,8-triazaacenaphthylene-2-carboxamide]	–

Structure (SMILES)	BTK_I_binding pIC50 [1]	BTK_I_binding pIC50 [2]	other results
C=CC(=O)N1C[C@H](O)C[C@@H](NC(=O)c2sc3nccc4c3c2NC(=O)N4c2ccc(Oc3ccccc3)cc2C)C1 (relative stereo) [Example 483, N-((3R,5R)-1-Acryloyl-5-hydroxypiperidin-3-yl)-5-(*S)-(2-methyl-4-phenoxyphenyl)-4-oxo-4,5-dihydro-3H-1-thia-3,5,8-triazaacenaphthylene-2-carboxamide]	8.4	–	–
C=CC(=O)N1C[C@H](NC(=O)c2sc3nccc4c3c2NC(=O)N4c2ccc(Oc3ccccc3)cc2C)[C@@H](F)C1 (relative stereo) [Example 486, N-((3S,4S)-1-Acryloyl-4-fluoropyrrolidin-3-yl)-5-(*S)-(2-methyl-4-phenoxyphenyl)-4-oxo-4,5-dihydro-3H-1-thia-3,5,8-triazaacenaphthylene-2-carboxamide]	7.8	–	–
